This note sets out measurements from US20190062305A1, “PYRIDYL OR PYRAZINYL COMPOUNDS CARRYING A METHYL-BOUND ALPHA-AMINO ACID AMIDE GROUP” (ABBVIE DEUTSCHLAND GMBH & CO. KG, priority 2015, published 2019).

Series [1] is described as follows: Metabolic stability in human liver microsomes, unbound intrinsic clearance (Cl int/fu mic). Format: in vitro ADME. Particulars: 0.5 μM compound, NADPH; for CLint scaled at 0.5 μM: human, liver microsomes, pH 7.4, human liver microsomes 0.25 mg/mL, read-out: Cl int, mic unb. (h) [l/h/kg] (unbound intrinsic clearance, human). Here is the method:
Samples of the tested compounds (0.5 μM) were preincubated together with human liver microsomes (0.25 mg of microsomal protein/mL) in 0.05 M potassium phosphate buffer of pH 7.4 in microtiter plates at 37° C. for 5 minutes. The reaction was started by adding NADPH (1.0 mM). After 0, 5, 10, 15, 20 and 30 minutes, an aliquot was removed, the reaction was cooled and stopped by adding twice the amount of quench solution consisting of acetonitrile/methanol 1:1, and containing 0.2 μM carbutamide as internal standard. The samples were frozen until analyzed. The remaining concentration of undegraded test substance was determined by liquid chromatography-tandem mass spectrometry (LC-MS/MS). The half-life (t1/2) was determined from the gradient of the ratio of the signal of (test substance/internal standard)/unit time plot, allowing the calculation of the half-life of the test substance, assuming first order kinetics, from the decrease in the concentration of the compound with time. The microsomal clearance ([…]) was calculated as follows: […]=((ln(2)/t 1⁄2)/Microsomal Protein Concentration (mg/ml))*1000, leading to the unit of uL/min/mg. The scaled clearance (mClin_scaled) was calculated as […]_scaled=m CLint*(Microsomal Yield (mg/kg BW))/1000000*60, leading to the units L/h/kg. The Microsomal Yield is defined by the specifics of the used microsomes. Calculations were modified from references: Di, The Society for Biomolecular Screening, 2003, 453-462; Obach, D M D, 1999 vol 27. N 11, 1350-1359. A suspension of 0.25 mg/ml microsomal protein spiked with 0.5 μM of test compound was pipetted on one side of a HTDialysis device (HTDialysis LLC, 37 Ledgewood Drive, Gales Fery CT 06335) separated by a membrane with a MWcut off 12-14 K. 50 mM K-Phosphate buffer (pH 7.4) was added on the other side of the well. After incubation at 37° C. for 4 h while shaking at 150 rpm, aliquots of both sides were taken, quenched with MeOH/ACN 1:1 and 0.2 μM of internal standard and frozen until analysis by LCMSMS Cl int unbound=Cl int/fu mic

A further series addresses T1, 5-HT2C receptor (Homo sapiens, UniProt P28335).
T1 construct: host or cells: U2OS
In words: Human 5-HT2C functional assay (beta-arrestin2 recruitment, U2OS_HTR2C_β-Arrestin cells). Format: cell-based. Conditions: for EC50: beta-arrestin2 recruitment, U2OS_HTR2C_β-Arrestin cells, 1.5 h incubation, read-out: EC50 5-HT2C (potency in functional assay). The method, then: The functional activity of compounds of formula I was assayed by incubation with U2OS_HTR2C_β-Arrestin cells (DiscoverX, 93-0289C3) to induce beta-arrestin2 recruitment to the 5-HT2C receptor. The agonist-induced recruitment and proximity of the receptor and beta-arrestin2 leads to complementation and formation of active β-galactosidase. The enzyme complementation results in enzyme activity, which is measured following the termination of the agonist incubation using DiscoveRx's detection reagent, which contains a chemiluminescent substrate which produces a high intensity signal. Cells were plated and a medium-change to a 1% serum containing medium was performed 24h later. The next day, test compounds were added and incubated for 1.5 h before addition of detection reagent.
The response produced was measured and compared with the response produced by 10 [mu]M 5-HT or the maximal effect induced by 5-HT (defined as 100%) to which it was expressed as a percentage response (relative efficacy). Dose response curves were constructed using Graphpad Prism (Graph Software Inc.) or using in house adapted software using a 4 parameter dose response model with variable slope (fit=(Bottom+(Top-Bottom)/(1+10^∧((Log EC50−x)*HillSlope))res=(y-fit)). Results are compiled in the table below.

The mark [2] stands for this setting: relative efficacy vs response to 10 μM 5-HT or maximal 5-HT effect (100%).

Counter-ions that a name gives are not always drawn.

T1 sequence (P28335 33-458): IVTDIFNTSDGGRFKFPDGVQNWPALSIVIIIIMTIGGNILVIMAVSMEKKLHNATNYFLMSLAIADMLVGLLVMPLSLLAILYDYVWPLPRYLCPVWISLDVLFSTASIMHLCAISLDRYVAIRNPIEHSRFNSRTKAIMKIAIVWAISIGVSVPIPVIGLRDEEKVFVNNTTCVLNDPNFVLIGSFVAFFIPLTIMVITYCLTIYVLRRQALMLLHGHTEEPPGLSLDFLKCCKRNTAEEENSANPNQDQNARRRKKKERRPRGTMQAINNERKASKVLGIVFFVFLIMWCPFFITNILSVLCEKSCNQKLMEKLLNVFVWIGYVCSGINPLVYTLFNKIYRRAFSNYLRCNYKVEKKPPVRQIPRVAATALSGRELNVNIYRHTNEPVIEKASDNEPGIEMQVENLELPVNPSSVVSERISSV
T1 sequence (P32121 whole entry partner): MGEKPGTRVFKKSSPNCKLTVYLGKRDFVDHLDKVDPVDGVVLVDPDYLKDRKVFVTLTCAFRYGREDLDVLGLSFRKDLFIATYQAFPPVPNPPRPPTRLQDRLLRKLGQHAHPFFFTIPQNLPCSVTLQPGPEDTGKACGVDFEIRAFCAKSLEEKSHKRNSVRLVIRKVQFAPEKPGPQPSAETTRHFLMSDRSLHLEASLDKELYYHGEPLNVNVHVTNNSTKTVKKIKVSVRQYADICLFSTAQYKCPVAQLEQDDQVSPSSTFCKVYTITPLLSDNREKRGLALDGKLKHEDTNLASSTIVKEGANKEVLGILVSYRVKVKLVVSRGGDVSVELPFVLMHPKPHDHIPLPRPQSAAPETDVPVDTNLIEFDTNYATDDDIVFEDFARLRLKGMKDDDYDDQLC

Take `COc1nc(NC2CCC(C(F)(F)F)CC2)c(F)cc1CN(C)C(=O)[C@@H]1CCCN1` (mixture of isomers) [Example 157, (2S)—N-[[5-fluoro-2-methoxy-6-[[4-(trifluoromethyl)cyclohexyl]amino]-3-pyridyl]methyl]-N-methyl-pyrrolidine-2-carboxamide; 2,2,2-trifluoroacetic Acid]: the CLint scaled at 0.5 μM in series [1] is 5 to 50 L/h/kg. The concentration for a half-maximal effect (EC50) at 5-HT2C receptor was 200 to 1000 nM. The Emax at 5-HT2C receptor (setting [2]) was 50 to 70%.

Regarding `COc1nc(O[C@H]2CCC[C@@H](C(F)(F)F)C2)c(F)cc1CNC(=O)[C@@H]1CCCN1` (relative stereo) [Example 88, (2S)—N-[[5-Fluoro-2-methoxy-6-[(1S,3R)-3-(trifluoromethyl)cyclohexoxy]-3-pyridyl]methyl]pyrrolidine-2-carboxamide Hydrochloride], the CLint scaled at 0.5 μM in series [1] lay in the range of 5 to 50 L/h/kg. Further, the EC50 on 5-HT2C receptor was under 20 nM. The Emax at 5-HT2C receptor (setting [2]) was over 70%.

Regarding `COc1nc(O[C@H]2CCC[C@H](C(F)(F)F)C2)c(F)cc1CNC(=O)[C@@H]1CCCN1` (relative stereo) [Example 89, (2S)—N-[[5-Fluoro-2-methoxy-6-[(1S,3S)-3-(trifluoromethyl)cyclohexoxy]-3-pyridyl]methyl]pyrrolidine-2-carboxamide Hydrochloride], the CLint scaled at 0.5 μM in series [1] lay within 5 to 50 L/h/kg. Moreover, the EC50 at 5-HT2C receptor is under 20 nM. Moreover, the Emax at 5-HT2C receptor (setting [2]) is over 70%.

For `COc1nc(OC2CCC(C(C)(F)F)CC2)c(F)cc1CNC(=O)[C@@H]1CCCN1` (single isomer, unassigned; isomer 1) [Example 73], the CLint scaled at 0.5 μM in series [1] fell in the range of 5 to 50 L/h/kg. Besides, at 5-HT2C receptor, the EC50 lay in the range of 200 to 1000 nM. Further, at 5-HT2C receptor (setting [2]), the Emax is over 70%.

On to `COc1nc(OC2CCC(C(C)(F)F)CC2)c(F)cc1CNC(=O)[C@@H]1CCCN1` (single isomer, unassigned; isomer 2) [Example 74], for which, in series [1] (human liver microsomes 0.25 mg/mL), the “Cl int, mic unb. (h) [l/h/kg] (unbound intrinsic clearance, human)” value is “++ (from 5 to <50 l/h/kg)”. Further, the 50% effective concentration (EC50) on 5-HT2C receptor is under 20 nM. In addition, the “% efficacy” value on 5-HT2C receptor (setting [2]) is reported as “+++ (>70%)”.

In the case of `COc1nc(OC2CCC(F)(F)CC2)c(F)cc1CNC(=O)[C@@H]1CCCN1` [Example 1, (2S)—N-[[6-(4,4-Difluorocyclohexoxy)-5-fluoro-2-methoxy-3-pyridyl]methyl]-pyrrolidine-2-carboxamide; Fumaric Acid], the CLint scaled at 0.5 μM in series [1] is under 5 L/h/kg. Also, the EC50 at 5-HT2C receptor was under 20 nM. Further, the Emax on 5-HT2C receptor (setting [2]) is over 70%.

`COc1nc(OCc2ccccc2)c(F)cc1CNC(=O)[C@@H]1CCCN1` [Example 2, (2S)—N-[(6-Benzyloxy-5-fluoro-2-methoxy-3-pyridyl)methyl]pyrrolidine-2-carboxamide; 2,2,2-trifluoroacetic Acid]: the CLint scaled at 0.5 μM in series [1] is under 5 L/h/kg. Further, at 5-HT2C receptor, the EC50 was under 20 nM. Besides, the Emax on 5-HT2C receptor (setting [2]) is over 70%.

On to `COc1nc(OCC2CCCCC2)c(F)cc1CNC(=O)[C@@H]1CCCN1` [Example 3, (2S)—N-[[6-(Cyclohexylmethoxy)-5-fluoro-2-methoxy-3-pyridyl]methyl]pyrrolidine-2-carboxamide; 2,2,2-trifluoroacetic acid], for which the CLint scaled at 0.5 μM in series [1] was 5 to 50 L/h/kg. Further, the EC50 at 5-HT2C receptor was under 20 nM. Moreover, the Emax on 5-HT2C receptor (setting [2]) was over 70%.

Consider `COc1nc(OCC2CCC(F)(F)CC2)c(F)cc1CNC(=O)[C@@H]1CCCN1` [Example 4, (2S)—N-[[6-[(4,4-Difluorocyclohexyl)methoxy]-5-fluoro-2-methoxy-3-pyridyl]-methyl]pyrrolidine-2-carboxamide; Fumaric Acid], for which the CLint scaled at 0.5 μM in series [1] was in the range of 5 to 50 L/h/kg. For the same molecule, the EC50 on 5-HT2C receptor was under 20 nM. This molecule also yielded a maximal response (Emax) at 5-HT2C receptor (setting [2]) of over 70%.

Turning to `COc1nc(OCC2CCC(F)(F)C2)c(F)cc1CNC(=O)[C@@H]1CCCN1` (stereo partly drawn) [Example 6, (2S)—N-[[6-[(3,3-Difluorocyclopentyl)methoxy]-5-fluoro-2-methoxy-3-pyridyl]-methyl]pyrrolidine-2-carboxamide; Fumaric Acid], in series [1], the CLint scaled at 0.5 μM was under 5 L/h/kg. For the same molecule, at 5-HT2C receptor, the EC50 is under 20 nM. For the same molecule, on 5-HT2C receptor (setting [2]), the maximal response (Emax) was over 70%.

On to `COc1nc(OCC2CCC(F)(F)C2)c(F)cc1CNC(=O)[C@@H]1CCCN1C` (stereo partly drawn) [Example 7, (2S)—N-[[6-[(3,3-Difluorocyclopentyl)methoxy]-5-fluoro-2-methoxy-3-pyridyl]-methyl]-1-methyl-pyrrolidine-2-carboxamide; Fumaric Acid], for which the CLint scaled at 0.5 μM in series [1] was under 5 L/h/kg. The EC50 on 5-HT2C receptor was under 20 nM. Moreover, at 5-HT2C receptor (setting [2]), the Emax was over 70%.

As for `COc1nc(O[C@H]2CC[C@H](C(F)(F)F)CC2)c(F)cc1CNC(=O)[C@@H]1CCCN1C` [Example 8, (2S)—N-[[5-Fluoro-2-methoxy-6-[trans-4-(trifluoromethyl)cyclohexoxy]-3-pyridyl]methyl]-1-methyl-pyrrolidine-2-carboxamide; Fumaric Acid], the CLint scaled at 0.5 μM in series [1] lay in the range of 5 to 50 L/h/kg. Besides, on 5-HT2C receptor, the EC50 was under 20 nM. The same molecule yielded a maximal response (Emax) on 5-HT2C receptor (setting [2]) of over 70%.

Regarding `COc1nc(OCC2CCC(F)(F)CC2)c(F)cc1CNC(=O)[C@@H]1CCCN1C` [Example 9, (2S)—N-[[6-[(4,4-Difluorocyclohexyl)methoxy]-5-fluoro-2-methoxy-3-pyridyl]methyl]-1-methyl-pyrrolidine-2-carboxamide; Fumaric Acid], the CLint scaled at 0.5 μM in series [1] was 5 to 50 L/h/kg. Further, on 5-HT2C receptor, the half-maximal effective concentration (EC50) is under 20 nM. Further, the maximal response (Emax) at 5-HT2C receptor (setting [2]) is over 70%.

Take `COc1nc(OC2CCC(F)(F)CC2)c(F)cc1CNC(=O)[C@@H]1CCCN1C` [Example 10, (2S)—N-[[6-(4,4-Difluorocyclohexoxy)-5-fluoro-2-methoxy-3-pyridyl]methyl]-1-methyl-pyrrolidine-2-carboxamide; Fumaric Acid]: in series [1], the CLint scaled at 0.5 μM lay in the range of 5 to 50 L/h/kg. At 5-HT2C receptor, the half-maximal effective concentration (EC50) was under 20 nM. Moreover, the Emax on 5-HT2C receptor (setting [2]) is over 70%.

Take `COc1nc(O[C@H]2CC[C@H](C(F)(F)F)CC2)c(F)cc1CNC(=O)[C@@H]1CCCN1` [Example 11, (2S)—N-[[5-Fluoro-2-methoxy-6-[trans-4-(trifluoromethyl)cyclohexoxy]-3-pyridyl]methyl]pyrrolidine-2-carboxamide; Fumaric Acid]: the CLint scaled at 0.5 μM in series [1] was 5 to 50 L/h/kg. Moreover, the EC50 at 5-HT2C receptor is under 20 nM. The same molecule gave an Emax at 5-HT2C receptor (setting [2]) of over 70%.

Consider `COc1nc(OC2CCC(OC)CC2)c(F)cc1CNC(=O)[C@@H]1CCCN1` (stereo partly drawn) [Example 12, (2S)—N-[[5-Fluoro-2-methoxy-6-(4-methoxycyclohexoxy)-3-pyridyl]methyl]-pyrrolidine-2-carboxamide; Fumaric Acid], for which the CLint scaled at 0.5 μM in series [1] is under 5 L/h/kg. Also, on 5-HT2C receptor, the concentration for a half-maximal effect (EC50) lay in the range of 20 to 200 nM. Also, on 5-HT2C receptor (setting [2]), the Emax is over 70%.

Take `COc1nc(OC2CCC(OC)CC2)c(F)cc1CNC(=O)[C@@H]1CCCN1C` (stereo partly drawn) [Example 13, (2S)—N-[[5-Fluoro-2-methoxy-6-(4-methoxycyclohexoxy)-3-pyridyl]methyl]-1-methyl-pyrrolidine-2-carboxamide; Fumaric Acid]: in series [1], the CLint scaled at 0.5 μM is under 5 L/h/kg. The EC50 on 5-HT2C receptor was 20 to 200 nM. At 5-HT2C receptor (setting [2]), this molecule showed a maximal effect (Emax) of over 70%.

As for `COc1nc(OCC2CCC(C(F)(F)F)CC2)c(F)cc1CNC(=O)[C@@H]1CCCN1` (stereo partly drawn) [Example 14, (2S)—N-[[5-Fluoro-2-methoxy-6-[[4-(trifluoromethyl)cyclohexyl]methoxy]-3-pyridyl]methyl]pyrrolidine-2-carboxamide; Fumaric Acid], the CLint scaled at 0.5 μM in series [1] was in the range of 50 to 500 L/h/kg. Besides, the EC50 on 5-HT2C receptor is under 20 nM. The molecule further showed a maximal response (Emax) at 5-HT2C receptor (setting [2]) of over 70%.

As to `COc1nc(OCC2CCC(C(F)(F)F)CC2)c(F)cc1CNC(=O)[C@@H]1CCCN1C` (stereo partly drawn) [Example 15, (2S)—N-[[5-Fluoro-2-methoxy-6-[[4-(trifluoromethyl)cyclohexyl]methoxy]-3-pyridyl]methyl]-1-methyl-pyrrolidine-2-carboxamide], the CLint scaled at 0.5 μM in series [1] was 50 to 500 L/h/kg. On 5-HT2C receptor, the 50% effective concentration (EC50) was under 20 nM. For the same molecule, the Emax at 5-HT2C receptor (setting [2]) is over 70%.
